Measurements as given in article PMC2633036, “Identifying Tumor Cell Growth Inhibitors by Combinatorial Chemistry and Zebrafish Assays” (PLoS ONE, 2009).

Target: T1, CDK2 (Homo sapiens, UniProt P24941)
T1 construct: CDK2/GST-Cyclin E kinase complex produced in baculovirus expression system; with Cyclin E (GST-Cyclin E)
Assay: radiometric kinase assay (gamma-32P-ATP, histone H1 substrate) with purified recombinant CDK2/cyclin E
Assay type: biochemical

| IC50 | SMILES |
| --- | --- |
| ~100 µM | O=c1[nH]c2c(nc3ccccn32)c2ccccc12 [13-1-a] |
| 1 to 2 µM | O=c1[nH]c2c(nc3ccccn32)c2cccc(O)c12 [13-1-e] |
